Data reported in ChEMBL document CHEMBL1177834, “ADMET rules of thumb II: A comparison of the effects of common substituents on a range of ADMET parameters” (Bioorg Med Chem, 2009).

The compounds below were run against Cytochrome P450 2C9 (Homo sapiens, UniProt P11712) (assay: Inhibition of CYP2C9).
Format: ADME

Cytochrome P450 2C9, sequence (P11712 whole entry): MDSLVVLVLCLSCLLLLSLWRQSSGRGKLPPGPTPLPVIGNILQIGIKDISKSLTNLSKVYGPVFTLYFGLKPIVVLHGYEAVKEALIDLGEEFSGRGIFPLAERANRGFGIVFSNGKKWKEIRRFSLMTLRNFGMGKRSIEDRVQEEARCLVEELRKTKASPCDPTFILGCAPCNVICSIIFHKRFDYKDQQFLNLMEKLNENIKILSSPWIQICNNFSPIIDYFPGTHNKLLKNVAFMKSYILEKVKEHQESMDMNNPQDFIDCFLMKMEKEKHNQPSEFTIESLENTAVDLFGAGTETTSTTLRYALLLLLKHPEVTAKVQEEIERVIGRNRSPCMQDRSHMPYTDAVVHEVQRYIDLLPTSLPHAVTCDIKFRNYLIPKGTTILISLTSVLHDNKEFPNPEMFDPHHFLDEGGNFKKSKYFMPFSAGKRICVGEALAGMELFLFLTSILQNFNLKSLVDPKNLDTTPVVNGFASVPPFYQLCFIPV

| SMILES | IC50 [µM] |
| --- | --- |
| O=C(Cn1c(CCc2cccc(F)c2F)nc(=O)c2cccnc21)N(Cc1ccc(-c2ccc(C(F)(F)F)cc2)cc1)C1CCNCC1 | 20 |
| O=C(Cn1c(CCc2cccc(F)c2F)nc(=O)c2ccccc21)N(Cc1ccc(-c2ccc(C(F)(F)F)cc2)cc1)C1CCNCC1 | 15.8 |
| Cc1ccc2c(N3CCN(CCc4cccc(-c5cncnc5)c4)CC3)cccc2n1 | 20 |
| Cc1ccc2c(N3CCN(CCc4ccc(F)cc4)CC3)cccc2n1 | 31.6 |
| Cc1c(-c2cccs2)nc2ccccc2c1C(=O)N[C@@H](C)C1CCCCC1 | 20 |
| C[C@H](NC(=O)c1c(Cc2cncnc2)c(-c2cccs2)nc2ccccc12)C1CCCCC1 | 31.6 |
| Cc1ccc2c(N3CCN(CCc4ccccc4)CC3)cccc2n1 | 39.8 |

Compounds with a lower IC50, results first:

| IC50 [µM] | SMILES |
| --- | --- |
| 10 | O=C(N[C@@H](c1cccc(F)c1)C1CC1)c1c(Cc2cncnc2)c(-c2ccccc2)nc2ccccc12 |
| 10 | Cc1ccc2c(N3CCN(CCc4ccc(F)c(-c5cncnc5)c4)CC3)cccc2n1 |
| 7.94 | Cc1c(-c2ccccc2)nc2ccccc2c1C(=O)N[C@@H](c1cccc(F)c1)C1CC1 |
| 0.1 | O=C(Cn1c(CCc2cccc(F)c2F)nc(=O)c2cccnc21)N(Cc1ccc(-c2ccc(C(F)(F)F)cc2)cc1)C1CCN(c2ccncn2)CC1 |
| 0.0794 | O=C(Cn1c(CCc2cccc(F)c2F)nc(=O)c2ccccc21)N(Cc1ccc(-c2ccc(C(F)(F)F)cc2)cc1)C1CCN(c2ccncn2)CC1 |
